Source: the NIST ThermoML archive (doi:10.1016/j.jct.2014.07.026)
Numbers after ± are expanded uncertainties.

experiment: not given; conditions: 298.15 K; 100 kPa; Liquid; Frequency=2 MHz; Linear variable-path acoustic interferometer

Structure (SMILES)	speed of sound
O [water]	1497.7 ± 2.5 m/s

experiment: mn = molality of the nth substance listed, in mol/kg; conditions: 298.15 K; 100 kPa; Liquid; Frequency=2 MHz; Linear variable-path acoustic interferometer; m2 = 0

Structure (SMILES)	speed of sound
O [water] + CC(C)C[C@H](N)C(=O)[O-].CCCCn1cc[n+](C)c1	1497.6 ± 2.5 m/s
O [water] + CCCCn1cc[n+](C)c1.C[C@H](N)C(=O)[O-]	1497.8 ± 2.5 m/s
O [water] + CCCCn1cc[n+](C)c1.CC[C@H](C)[C@H](N)C(=O)[O-]	1497.8 ± 2.5 m/s
O [water] + CC(C)[C@H](N)C(=O)[O-].CCCCn1cc[n+](C)c1	1497.6 ± 2.5 m/s
O [water] + CCCCn1cc[n+](C)c1.NCC(=O)[O-]	1497.6 ± 2.5 m/s
